“And” between values parts separate entries of the source, which are not always exact repeats. Equal entries are not always repeated.
Assays:
[1] = Body weight of treated nude mice in the L3.6pl pancreatic tumour model; type: in vivo, male athymic nude mice
Method: (§1) L3.6pl pancreatic cancer cells were obtained after successive cycles of cell selection from nude mouse tumour tissue that developed after injection of COLO 357 human pancreatic cancer cells. L3.6pl cancer cells (1×10^6 cells) were injected into the pancreas of each animal in several groups of male athymic nude mice (n=8 to 10 per group). […] On the days where both agents were given, the gemcitabine was dosed at least 1 hour before test compound Src-1. A control group of 10 mice received intraperitoneal injections of an equivalent volume of saline according to the same treatment schedule as the combination group. The animals were sacrificed 32 days after tumour cell injection. The pancreatic tumour weight was measured. The incidence of liver metastases was evaluated. All macroscopically enlarged liver nodules were evaluated by histopathology to confirm tumour metastasis.

[2] = system: L3.6pl pancreatic cancer cells; assay: Orthotopic L3.6pl pancreatic tumour model in nude mice: pancreatic tumour weight and liver metastases; type: in vivo, human; settings: for Liver Metastases: animals with metastases/animals
Text: as §1, with “The test method has been described by C J Bruns et al., Cancer Research, 2000, 60, 2926-2935 and involves the injection of pancreatic tumour cells derived from the COLO 357 human pancreatic cancer cell line into pancreas tissue in a group of nude mice and an evaluation of tumour growth and metastasis into liver node tissue. L3.6pl pancreatic” for “L3.6pl pancreatic”

[3] = Src-1 25 mg/kg orally by gavage daily, days 1-5 and 8-12, 32 days after tumour cell injection
[4] = Src-1 50 mg/kg orally by gavage daily, days 1-5 and 8-12, 32 days after tumour cell injection

SMILES | Average Body Weight +/− std dev ([1]; gemcitabine 100 mg/kg intraperitoneal twice weekly) [g] | Liver Metastases ([2]; gemcitabine 100 mg/kg intraperitoneal twice weekly (days 2, 5, 9, 12), sacrificed 32 days after tumour cell injection, monohydrochloride) | Average Tumour Weight +/− std dev ([2]; gemcitabine 100 mg/kg intraperitoneal twice weekly, 32 days after tumour cell injection) [mg] | Average Body Weight +/− std dev ([1]; Src-1 25 mg/kg orally by gavage daily, days 1-5 and 8-12) [g] | Average Body Weight +/− std dev ([1]; Src-1 50 mg/kg orally by gavage daily, days 1-5 and 8-12) [g] | Average Tumour Weight +/− std dev [2, 3] [mg] | Liver Metastases [2, 3] | Average Tumour Weight +/− std dev [2, 4] [mg] | Liver Metastases [2, 4]
Cl.Nc1ccn([C@@H]2O[C@H](CO)[C@@H](O)C2(F)F)c(=O)n1 [gemcitabine, 2′-deoxy-2′,2′-difluorocytidine monohydrochloride] | 22.7 ± 1.5 | ⅕ and 1/5 | 393 ± 68 | – | – | – | – | – | –
COc1ccc(Cl)c(Nc2ncnc3cc(OCC4CCN(C)CC4)c(OC)cc23)c1 [Src-1, 4-(2-chloro-5-methoxyanilino)-6-methoxy-7-(N-methylpiperidin-4-ylmethoxy)quinazoline] | – | – | – | 22.6 ± 1.4 | 22.3 ± 6.8 | 816 ± 118 | 0/9 | 827 ± 176 | 0/9

Reference: US20060142297A1, “Combination product of inhibitor of the src family of non-recetpor tyrosine kinases and gemcitabine” (priority 2002, published 2006)
